# Counter-ions that a name gives are not always drawn.
# Test system: db/db mice
# Test: Body weight and food consumption in db/db mice treated for 4 weeks (Example 2)
# Type: in vivo
# Details: for Body Weight (grams) Mean ± SD 4 Weeks / Food Consumption Week 2 / Food Consumption Week 3 / Food Consumption Week 4 / Change in Body Weight (grams): db/db mice; for Change in Body Weight (grams): initial to 4 weeks
# Procedure: Male db/db mice have a defect in the receptor for the appetite-regulating protein leptin and consequently develop hyperphagia, obesity, insulin resistance, hyperglycemia, hypertriglyceridemia. Male db/db mice are an accepted animal model for Type II diabetes. The effect of a range of single daily doses of orally administered Compound BI was assessed in this model, and the efficacy of rosiglitazone alone and in combination with Compound BI was also examined.
# Male C57BL/Ksola db/db mice (“db/db mice”) were obtained from Harlan (Indianapolis, Ind.) and allowed to acclimate for a minimum of one week. Animals received Purina 5008 Lab Diet and tap water ad libitum and were housed with 3-4 animals per cage. Male C57BL/6 mice of the same age were used as lean nondiabetic controls.
# Body weights and blood glucose levels were measured and animals were sorted groups of 6-7 mice with equivalent mean body weights in each group. […].
# • 1. Lean Control (no treatment) • 2. Vehicle • 3. Compound BI 30 mg/kg/day • 4. Compound BI 100 mg/kg/day • 5. Compound BI 150 mg/kg/day • 6. Rosiglitazone 3 mg/kg • 7. Rosiglitazone 3 mg/kg+Compound BI 30 mg/kg • 8. Rosiglitazone 3 mg/kg+Compound BI 100 mg/kg • 9. Rosiglitazone 20 mg/kg • 10. Rosiglitazone 20 mg/kg+Compound BI 30 mg/kg • 11. Rosiglitazone 20 mg/kg+Compound BI 100 mg/kg
# Drug preparation: Compound BI was suspended in a vehicle comprising 1% aqueous hydroxypropylmethylcellulose, using a tissue homogenizer to minimize particle size and maximize uniformity of the suspension. Rosiglitazone was suspended in the same vehicle. Drug concentrations in the dosing suspension for each treatment group were adjusted according to body weights so that a constant volume of 0.4 ml provided appropropriate drug doses in all groups.
# Drug Administration: Drugs were administered orally by gavage once per day for 28 days.
structure (smiles),measurement,setting,value
"Cc1cccc(C)c1COc1cccc(C(=O)CCC(=O)O)c1 [Compound BI, 4-(3-(2,6-Dimethylbenzyloxy)phenyl)-4-oxobutyric acid]",body weight and food intake (in words),"Compound BI 30 mg/kg, RSG 3 mg/kg, alone or combined",little effect on body weight and food intake
same,Body Weight (grams) Mean ± SD 4 Weeks,"4 Weeks oral once per day, Compound BI 30 mg/kg",50.3 ± 2.1 grams
same,Body Weight (grams) Mean ± SD 4 Weeks,"4 Weeks oral once per day, Compound BI 150 mg/kg",47.4 ± 2.7 grams
same,Body Weight (grams) Mean ± SD 4 Weeks,"4 weeks oral once per day, Compound BI 100 mg/kg",47.8 ± 3.6 grams
same,Food Consumption Week 2,Compound BI 30 mg/kg,5.3 grams/24 hr/mouse
same,Food Consumption Week 2,Compound BI 100 mg/kg,3.6 grams/24 hr/mouse
same,Food Consumption Week 2,Compound BI 150 mg/kg,3.1 grams/24 hr/mouse
same,Food Consumption Week 3,Compound BI 30 mg/kg,4.9 grams/24 hr/mouse
same,Food Consumption Week 3,Compound BI 100 mg/kg,3.7 grams/24 hr/mouse
same,Food Consumption Week 3,Compound BI 150 mg/kg,4.1 grams/24 hr/mouse
same,Food Consumption Week 4,Compound BI 30 mg/kg,5.6 grams/24 hr/mouse
same,Food Consumption Week 4,Compound BI 100 mg/kg,5.1 grams/24 hr/mouse
same,Food Consumption Week 4,Compound BI 150 mg/kg,6 grams/24 hr/mouse
same,Change in Body Weight (grams),Compound BI 30 mg/kg,+8.4 grams
same,Change in Body Weight (grams),Compound BI 100 mg/kg,+6.3 grams
same,Change in Body Weight (grams),Compound BI 150 mg/kg,+6.6 grams
"CN(CCOc1ccc(CC2SC(=O)NC2=O)cc1)c1ccccn1 (centres unmarked) [RSG, rosiglitazone maleate, reference compound]",Body Weight (grams) Mean ± SD 4 Weeks,"4 Weeks oral once per day, RSG 20 mg/kg",51.4 ± 1.4 grams
same,Body Weight (grams) Mean ± SD 4 Weeks,"4 weeks oral once per day, RSG 3 mg/kg",48.2 ± 2.6 grams
same,Food Consumption Week 2,RSG 3 mg/kg,5.3 grams/24 hr/mouse
same,Food Consumption Week 2,RSG 20 mg/kg,5.4 grams/24 hr/mouse
same,Food Consumption Week 3,RSG 3 mg/kg,4.0 grams/24 hr/mouse
same,Food Consumption Week 3,RSG 20 mg/kg,5.9 grams/24 hr/mouse
same,Food Consumption Week 4,RSG 3 mg/kg,4.8 grams/24 hr/mouse
same,Food Consumption Week 4,RSG 20 mg/kg,6.3 grams/24 hr/mouse
same,Change in Body Weight (grams),RSG 3 mg/kg,+6.4 grams
same,Change in Body Weight (grams),RSG 20 mg/kg,+10.3 grams

# Source: patent publication US8338480B2, “Combination treatment of metabolic disorders” (Wellstat Therapeutics Corporation, priority 2006, dated 2012)
